Measured values taken from publication PMC10066365, “Nemacol is a small molecule inhibitor of C. elegans vesicular acetylcholine transporter with anthelmintic potential” (Nature Communications, 2023).
“And” between values parts separate entries of the source, which are not always exact repeats. Equal values may be shown once. Read-outs that look alike come from different tables or passages of the source.

What was measured:
Haemonchus contortus = Haemonchus contortus L3 Migration Trap Assay (motility, 24 h exposure); settings: hc weybridge, motilityTrap24hNoWash, 24 h, single wells
[1] = system: Dirofilaria immitis L3/L4; assay: Dirofilaria immitis L3/L4 motility assay (DiroImager, 72 h); settings: Dirofilaria immitis L4
C. elegans = C. elegans motor phenotype scoring on solid media (Punc/jerky-unc, coiled, paralyzed), wild-type young adults; type: in vivo, Caenorhabditis elegans; settings: for atypical locomotion (number of animals) / coiled (number of animals) / no phene (number of animals) / paralyzed (number of animals) / any phene: mean % fraction of young adults exhibiting any phenotype (coiled, jerky-Unc or paralyzed): one hour; for atypical locomotion (number of animals) / coiled (number of animals) / no phene (number of animals) / paralyzed (number of animals): young adults, 20 animals per trial, single technical replicate; for any phene: mean % fraction of young adults exhibiting any phenotype (coiled, jerky-Unc or paralyzed): mean of three biological replicates
[2] = system: Dirofilaria immitis microfilariae; assay: Dirofilaria immitis microfilariae immobility assay (DiroImager, 72 h); settings: Dirofilaria immitis microfilariae
Outline: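 Motility read after 72 h drug exposure with an image-based high-throughput plate imager, 1% DMSO medium serving as negative control. Missouri-isolate microfilariae, roughly 250 per well, freshly purified and cultured in supplemented RPMI 1640.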

rat VAChT = biological target: T1, rat VAChT (Rattus norvegicus, UniProt Q62666); assay: [3H]Vesamicol competitive radioligand binding, PC12 cells expressing ratVAChT
T1 construct: expressed in transfected cells; host or cells: rat PC12 (PC12 A123.7) cells, stably transfected; shared by Dr. Ali Roghani (Texas Tech University)
T1 sequence (Q62666 1-530): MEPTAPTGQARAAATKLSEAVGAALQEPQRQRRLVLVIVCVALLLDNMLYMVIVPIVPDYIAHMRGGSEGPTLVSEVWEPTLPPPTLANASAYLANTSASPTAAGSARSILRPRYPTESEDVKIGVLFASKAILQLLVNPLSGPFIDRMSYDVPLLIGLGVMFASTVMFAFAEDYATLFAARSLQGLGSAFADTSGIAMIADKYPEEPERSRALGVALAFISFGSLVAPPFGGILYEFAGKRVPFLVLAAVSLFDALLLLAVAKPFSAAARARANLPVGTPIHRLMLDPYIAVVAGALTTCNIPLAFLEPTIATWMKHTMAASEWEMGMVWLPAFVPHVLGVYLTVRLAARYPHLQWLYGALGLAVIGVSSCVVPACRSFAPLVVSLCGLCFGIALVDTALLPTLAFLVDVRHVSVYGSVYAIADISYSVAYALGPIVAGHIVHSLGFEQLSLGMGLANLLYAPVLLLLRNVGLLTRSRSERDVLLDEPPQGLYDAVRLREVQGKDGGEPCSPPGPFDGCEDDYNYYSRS

Pristionchus pacificus = Pristionchus pacificus motor disruption dose-response on solid media, 1 h; settings: for mean % any phene: any phenotype (coiled, jerky-Unc or paralyzed) at one hour, mean of three biological replicates; for rep 1 atypical locomotion / rep 1 coiled / rep 1 no phene / rep 1 paralyzed / rep 2 atypical locomotion / rep 2 coiled / rep 2 no phene / rep 2 paralyzed / rep 3 atypical locomotion / rep 3 coiled / rep 3 no phene / rep 3 paralyzed: count of 20 animals per trial, one hour

O=[N+]([O-])c1ccc(N2CCN(CC3CCCCC3)CC2)cc1 [Nemacol_1]
efficacy (Haemonchus contortus; dose 0.0195312 µM): 0
efficacy (Haemonchus contortus; dose 0.078125 µM): 0
efficacy (Haemonchus contortus; dose 0.3125 µM): 0
efficacy (Haemonchus contortus; dose 1.25 µM): 0
efficacy (Haemonchus contortus; dose 5 µM): 0

c1ccc(N2CCN(C3CCCCCC3)CC2)cc1 [Nemacol-59]
% effect (motility), DIROIM L4 ([1]; 10 µM): 30%
% effect (motility), DIROIM L4 ([1]; 50 µM): 25%
atypical locomotion (number of animals) (C. elegans; 3.75uM): 5 and 4 and 7 and 2
coiled (number of animals) (C. elegans; 3.75uM): 0
no phene (number of animals) (C. elegans; 3.75uM): 15 and 16 and 13
paralyzed (number of animals) (C. elegans; 3.75uM): 0 and 2
any phene: mean % fraction of young adults exhibiting any phenotype (coiled, jerky-Unc or paralyzed) (C. elegans; 3.75uM): 24.1667%
atypical locomotion (number of animals) (C. elegans; 15uM): 15 and 17 and 14 and 16 and 18
coiled (number of animals) (C. elegans; 15uM): 0 and 1 and 3 and 2
no phene (number of animals) (C. elegans; 15uM): 0 and 2
paralyzed (number of animals) (C. elegans; 15uM): 5 and 3 and 0
any phene: mean % fraction of young adults exhibiting any phenotype (coiled, jerky-Unc or paralyzed) (C. elegans; 15uM): 98.3333%
atypical locomotion (number of animals) (C. elegans; 60uM): 1 and 4 and 8 and 5 and 3
coiled (number of animals) (C. elegans; 60uM): 12 and 6 and 4 and 7
no phene (number of animals) (C. elegans; 60uM): 0
paralyzed (number of animals) (C. elegans; 60uM): 7 and 10 and 8 and 9 and 11
EC50 (C. elegans; Caenorhabditis elegans, any motor phenotype after 1 h on solid media, ± 95% CI, read-out: C. elegans - motor disruption EC50): 5100 ± 500 nM
% effect (motility), DIROIM MF ([2]; 0.016 µM): 0%
% effect (motility), DIROIM MF ([2]; 0.08 µM): 0%
% effect (motility), DIROIM MF ([2]; 0.4 µM): 0%
% effect (motility), DIROIM MF ([2]; 2 µM): 0%
% effect (motility), DIROIM MF ([2]; 10 µM): 0%
Ki (rat VAChT; [3H]Vesamicol binding, PC12, experiment 1, read-out: expt 1 Ki (M) vs. rat VAChT (PC12)): 1.85e-06 M
Ki (rat VAChT; [3H]Vesamicol binding, PC12, experiment 2, read-out: expt 2 Ki (M) vs. rat VAChT (PC12)): 1.68e-06 M
Ki (rat VAChT; [3H]Vesamicol binding, rat VAChT (PC12), mean of 2-3 experiments, read-out: mean Ki): 1.76e-06 M
Ki (rat VAChT; [3H]Vesamicol displacement, mean, read-out: ratVAChT Ki): 1.76e-06 M
EC50 (Pristionchus pacificus; Pristionchus pacificus, 1 h, read-out: P. pacificus motor disruption EC50): > 60000 nM
mean % any phene (Pristionchus pacificus; conc 3.75): 0%
rep 1 atypical locomotion (Pristionchus pacificus; conc 3.75): 0
rep 1 coiled (Pristionchus pacificus; conc 3.75): 0
rep 1 no phene (Pristionchus pacificus; conc 3.75): 20
rep 1 paralyzed (Pristionchus pacificus; conc 3.75): 0
rep 2 atypical locomotion (Pristionchus pacificus; conc 3.75): 0
rep 2 coiled (Pristionchus pacificus; conc 3.75): 0
rep 2 no phene (Pristionchus pacificus; conc 3.75): 20
rep 2 paralyzed (Pristionchus pacificus; conc 3.75): 0
rep 3 atypical locomotion (Pristionchus pacificus; conc 3.75): 0
rep 3 coiled (Pristionchus pacificus; conc 3.75): 0
rep 3 no phene (Pristionchus pacificus; conc 3.75): 20
rep 3 paralyzed (Pristionchus pacificus; conc 3.75): 0
mean % any phene (Pristionchus pacificus; conc 15): 0%
rep 1 atypical locomotion (Pristionchus pacificus; conc 15): 0
rep 1 coiled (Pristionchus pacificus; conc 15): 0
rep 1 no phene (Pristionchus pacificus; conc 15): 20
rep 1 paralyzed (Pristionchus pacificus; conc 15): 0
rep 2 atypical locomotion (Pristionchus pacificus; conc 15): 0
rep 2 coiled (Pristionchus pacificus; conc 15): 0
rep 2 no phene (Pristionchus pacificus; conc 15): 20
rep 2 paralyzed (Pristionchus pacificus; conc 15): 0
rep 3 atypical locomotion (Pristionchus pacificus; conc 15): 0
rep 3 coiled (Pristionchus pacificus; conc 15): 0
rep 3 no phene (Pristionchus pacificus; conc 15): 20
rep 3 paralyzed (Pristionchus pacificus; conc 15): 0
mean % any phene (Pristionchus pacificus; conc 60): 5.833%
rep 1 atypical locomotion (Pristionchus pacificus; conc 60): 4 and 2
rep 1 coiled (Pristionchus pacificus; conc 60): 0
rep 1 no phene (Pristionchus pacificus; conc 60): 16 and 18
rep 1 paralyzed (Pristionchus pacificus; conc 60): 0
rep 2 atypical locomotion (Pristionchus pacificus; conc 60): 0
rep 2 no phene (Pristionchus pacificus; conc 60): 19 and 20
rep 2 paralyzed (Pristionchus pacificus; conc 60): 0
rep 3 atypical locomotion (Pristionchus pacificus; conc 60): 0
rep 3 coiled (Pristionchus pacificus; conc 60): 0
rep 3 no phene (Pristionchus pacificus; conc 60): 20
rep 3 paralyzed (Pristionchus pacificus; conc 60): 0

c1ccc(N2CCN(CC3CCCC3)CC2)cc1 [Nemacol_62]
efficacy (Haemonchus contortus; dose 5 µM): 0
efficacy (Haemonchus contortus; dose 20 µM): 0
efficacy (Haemonchus contortus; dose 80 µM): 0
